Measurements: patent publication US12023330B2, “Use of manzamines as antiproliferative agent” (priority 2020, dated 2024)

Columns and labels:
[1] = tested on: cervical cancer cell lines (SiHa and CaSki); experiment: Cell growth of manzamine-related compounds; assay type: cell-based, human
Experimental: (§1) Based on MoIN, the additional manzamine-related compounds such as manzamine D (2), manzamine F (3), 8-hydroxymanzamine A (4), and ircinal A (5) were tested for their biological activities targeting cervical cancer cell lines (SiHa and CaSki).
Cell Growth Kinetics. Cervical cancer cells (1×10^6) or HKc (2×10^5) were plated in 100 mm tissue culture petri dish or 6-well plates. Following overnight incubation, cells were treated with 2 μM or 4 μM concentrations of manzamine A (1) derivatives for different time points (24, 48 and 72 hours). Dimethyl sulphoxide (DMSO) was used as control. The cell proliferation activity was determined by cell counting under the microscope with a hemocytometer using trypan blue staining.

[2] = tested on: normal human keratinocytes (HKc); experiment: Cell growth kinetics of normal keratinocytes; assay type: cell-based; details: 4 μM stated for compound 4; 48 h and 72 h; vs DMSO control
Experimental: as §1
Generation of Normal Human Keratinocytes (HKc). The generation and processing of normal HKc from de-identified foreskin tissue samples has previously been described in our studies, see Pirisi, L.; Yasumoto, S.; Feller, M.; Doniger, J.; DiPaolo, J. A. J. Virol. 1987, 61, 1061-1066, and was implemented with the following modifications: dispase was used in lieu of collagenase, and a trypsinization step was added to release the epidermal cells. Briefly, to generate normal HKc primary cultures, the foreskin tissue, free of subcutaneous tissue, was placed in 10% dispase in phosphate buffer saline (PBS) and incubated overnight at 37° C. The next day, the epidermis was separated from the dermis, and processed mechanically by shredding the tissue into smaller pieces that were then treated with Trypsin/EDTA for 10 minutes at 37° C. Following the addition of fetal bovine serum (10%) to stop the trypsin action, cells were collected by centrifugation and plated in keratinocytes serum free medium (KSFM).
Cell Growth Kinetics. […] The cell proliferation activity was determined by cell counting under the microscope with a hemocytometer using trypan blue staining.

Structure (SMILES)	effect on cervical cancer cell growth [1]	cell growth kinetics of normal HKc [2]
Oc1cccc2c1[nH]c1c(C3=C[C@@]4(O)CC/C=C\CCCCN5CC[C@@H]3[C@]3(C[C@@H]6/C=C\CCCCN6[C@H]34)C5)nccc12 [8-hydroxymanzamine A]	showed inhibition	inhibited significantly
O=CC1=C[C@@]2(O)CC/C=C\CCCCN3CC[C@@H]1[C@]1(CC4/C=C\CCCCN4[C@H]12)C3 (some centres unmarked) [ircinal A]	did not reveal any effect	
O[C@]12C=C(C3NCCc4c3[nH]c3ccccc43)[C@@H]3CCN(CCCC/C=C\CC1)C[C@@]31C[C@@H]3/C=C\CCCCN3[C@H]12 (some centres unmarked) [manzamine D]	did not reveal any effect	
O=C1CCCN2[C@@H](CC1)C[C@]13CN4CCCC/C=C\CC[C@](O)(C=C(c5nccc6c5[nH]c5c(O)cccc56)C1CC4)[C@H]23 (some centres unmarked) [manzamine F]	did not reveal any effect	
